From ChEMBL document CHEMBL5634182, “Antifungal Pseuboyenes A-J, Bergamotene-Derived Sesquiterpenoids from a Cold-Seep-Derived Pseudallescheria boydii” (J Nat Prod, 2024)

What was measured:
[1] = test system: Fusarium oxysporum; assay: Antifungal activity against Fusarium oxysporum QDAU-8 assessed as reduction in microbial growth by broth microdilution method; format: functional
[2] = test system: Curvularia spicifera; assay: Antifungal activity against Curvularia spicifera QDAU-18 assessed as reduction in microbial growth by broth microdilution method; format: functional
[3] = test system: Ceratobasidium cornigerum; assay: Antifungal activity against Ceratobasidium cornigerum QDAU-6 assessed as reduction in microbial growth by broth microdilution method; format: functional
[4] = test system: Penicillium digitatum; assay: Antifungal activity against Penicillium digitatum QDAU-14 assessed as reduction in microbial growth by broth microdilution method; format: functional
[5] = test system: Botryosphaeria berengeriana; assay: Antifungal activity against Physalospora piricola QDAU-15 assessed as reduction in microbial growth by broth microdilution method; format: functional
[6] = test system: Colletotrichum gloeosporioides; assay: Antifungal activity against Colletotrichum gloeosporioides QDAU-17 assessed as reduction in microbial growth by broth microdilution method; format: functional
[7] = test system: Fusarium graminearum; assay: Antifungal activity against Fusarium graminearum QDAU-4 assessed as reduction in microbial growth by broth microdilution method; format: functional
[8] = test system: Colletotrichum gloeosporioides; assay: Antifungal activity against Colletotrichum gloeosporioides QDAU-2 assessed as reduction in microbial growth by broth microdilution method; format: functional
[9] = test system: Alternaria brassicae; assay: Antifungal activity against Alternaria brassicae QDAU-16 assessed as reduction in microbial growth by broth microdilution method; format: functional
[10] = test system: Fusarium proliferatum; assay: Antifungal activity against Fusarium proliferatum QDAU-19 assessed as reduction in microbial growth by broth microdilution method; format: functional
[11] = test system: Coniella diplodiella; assay: Antifungal activity against Coniothyrium diplodiella QDAU-7 assessed as reduction in microbial growth by broth microdilution method; format: functional
[12] = test system: Micrococcus luteus; assay: Antibacterial activity against Micrococcus luteus QDIO-3 assessed as reduction in microbial growth by broth microdilution method; format: functional
[13] = test system: HepG2; assay: Cytotoxicity against human HepG2 cells assessed as reduction in cell viability at 20 uM; format: functional, cell-based
[14] = test system: HCT-116; assay: Cytotoxicity against human HCT-116 cells assessed as reduction in cell viability at 20 uM; format: functional, cell-based
[15] = test system: GBC-SD; assay: Cytotoxicity against human GBC-SD cells assessed as reduction in cell viability at 20 uM; format: functional, cell-based
[16] = test system: 786-0; assay: Cytotoxicity against human 786-0 cells assessed as reduction in cell viability at 20 uM; format: functional, cell-based
[17] = test system: MKN-45; assay: Cytotoxicity against human MKN-45 cells assessed as reduction in cell viability at 20 uM; format: functional, cell-based
[18] = test system: DU-145; assay: Cytotoxicity against human DU-145 cells assessed as reduction in cell viability at 20 uM; format: functional, cell-based
[19] = test system: MCF7; assay: Cytotoxicity against human MCF7 cells assessed as reduction in cell viability at 20 uM; format: functional, cell-based
[20] = test system: A673; assay: Cytotoxicity against human A673 cells assessed as reduction in cell viability at 20 uM; format: functional, cell-based
[21] = test system: CAL-62; assay: Cytotoxicity against human CAL-62 cells assessed as reduction in cell viability at 20 uM; format: functional, cell-based
[22] = test system: K562; assay: Cytotoxicity against human K562 cells assessed as reduction in cell viability at 20 uM; format: functional, cell-based
[23] = test system: Vibrio harveyi; assay: Antibacterial activity against Vibrio harveyi QDIO-7 assessed as reduction in microbial growth by broth microdilution method; format: functional
[24] = test system: L02; assay: Cytotoxicity against human L02 cells assessed as reduction in cell viability at 20 uM; format: functional, cell-based
[25] = test system: Escherichia coli; assay: Antibacterial activity against Escherichia coli EMBLC-1 assessed as reduction in microbial growth by broth microdilution method; format: functional
[26] = test system: Edwardsiella tarda; assay: Antibacterial activity against Edwardsiella tarda QDIO-2 assessed as reduction in microbial growth by broth microdilution method; format: functional
[27] = test system: HEK-293T; assay: Cytotoxicity against human HEK293T cells assessed as reduction in cell viability at 20 uM; format: toxicity, cell-based
[28] = test system: Vibrio vulnificus; assay: Antibacterial activity against Vibrio vulnificus QDIO-10 assessed as reduction in microbial growth by broth microdilution method; format: functional
[29] = test system: Vibrio anguillarum; assay: Antibacterial activity against Vibrio anguillarum QDIO-6 assessed as reduction in microbial growth by broth microdilution method; format: functional
[30] = test system: HeLa; assay: Cytotoxicity against human HeLa cells assessed as reduction in cell viability at 20 uM; format: functional, cell-based
[31] = test system: TE-1; assay: Cytotoxicity against human TE-1 cells assessed as reduction in cell viability at 20 uM; format: functional, cell-based
[32] = test system: HOS; assay: Cytotoxicity against human HOS cells assessed as reduction in cell viability at 20 uM; format: functional, cell-based
[33] = test system: A-375; assay: Cytotoxicity against human A-375 cells assessed as reduction in cell viability at 20 uM; format: functional, cell-based
[34] = test system: 5637; assay: Cytotoxicity against human 5637 cells assessed as reduction in cell viability at 20 uM; format: functional, cell-based
[35] = test system: SF-126; assay: Cytotoxicity against human SF-126 cells assessed as reduction in cell viability at 20 uM; format: functional, cell-based
[36] = test system: Pseudomonas aeruginosa; assay: Antibacterial activity against Pseudomonas aeruginosa QDIO-4 assessed as reduction in microbial growth by broth microdilution method; format: functional
[37] = test system: A549; assay: Cytotoxicity against human A549 cells assessed as reduction in cell viability at 20 uM; format: functional, cell-based
[38] = test system: PaTu 8988t; assay: Cytotoxicity against human PaTu 8988t cells assessed as reduction in cell viability at 20 uM; format: functional, cell-based

Row | SMILES | MIC [1] [mg/L] | MIC [2] [mg/L] | MIC [3] [mg/L] | MIC [4] [mg/L] | MIC [5] [mg/L] | MIC [6] [mg/L] | MIC [7] [mg/L] | MIC [8] [mg/L] | MIC [9] [mg/L] | MIC [10] [mg/L] | MIC [11] [mg/L] | MIC [12] [mg/L] | MIC [23] [mg/L] | MIC [25] [mg/L] | MIC [26] [mg/L] | MIC [28] [mg/L] | MIC [29] [mg/L] | MIC [36] [mg/L] | also measured
1 | C=C1[C@H](O)C[C@H]2C[C@@H]1[C@](C)([C@H](O)CC=C(C)C)O2 | 2 | 8 | 4 | 8 | 8 | 2 | 2 | 4 | 8 | 16 | 4 | – | – | – | – | – | – | – | –
2 | C=C1CC[C@H](O)C[C@@H]1[C@H](C)C(=O)[C@H](O)C=C(C)C | – | – | – | – | – | – | – | – | – | – | – | > 64 | > 64 | 8 | > 64 | > 64 | 32 | > 64 | Activity [13]: Not toxic; Activity [14]: Not toxic; Activity [15]: Not toxic; Activity [16]: Not toxic; Activity [17]: Not toxic; Activity [18]: Not toxic; Activity [19]: Not toxic; Activity [20]: Not toxic; Activity [21]: Not toxic; Activity [22]: Not toxic; Activity [24]: Not toxic; Activity [27]: Non-Toxic; Activity [30]: Not toxic; Activity [31]: Not toxic; Activity [32]: Not toxic; Activity [33]: Not toxic; Activity [34]: Not toxic; Activity [35]: Not toxic; Activity [37]: Not toxic; Activity [38]: Not toxic
3 | C=C1CC[C@H](O)C[C@@H]1[C@@](C)(O)C(=O)/C=C/C(C)(C)O | – | – | – | – | – | – | – | – | – | – | – | > 64 | > 64 | > 64 | 16 | 64 | > 64 | > 64 | –
4 | C=C1CC[C@@]2(O)C[C@@H]1[C@]2(C)[C@@H](CC=C(C)C)OC(C)=O | 16 | 1 | 4 | 8 | 32 | 16 | 2 | 4 | 8 | 2 | 4 | > 64 | 16 | 8 | 4 | > 64 | > 64 | > 64 | –
5 | O=C(N[C@H](CO)[C@H](O)c1ccc([N+](=O)[O-])cc1)C(Cl)Cl [CHLORAMPHENICOL] | – | – | – | – | – | – | – | – | – | – | – | 0.5 | 0.5 | 0.5 | 2 | 2 | 0.5 | 2 | –
6 | C=C1CC[C@H](O)C[C@@H]1[C@H](C)[C@H](O)C(=O)C=C(C)C | – | – | – | – | – | – | – | – | – | – | – | > 64 | > 64 | > 64 | > 64 | 2 | 64 | > 64 | –
